Reference: patent publication US5342970A, “Hydrosoluble coumarin derivatives, their preparation and their use as an enzyme substrate or for the preparation of such substrates” (priority 1991, dated 1994)
Several values for one entry are separate records, joined by “and”; a condition that tells them apart may be missing. Identical values can stand only once. Counter-ions that a name gives are not always drawn. Like-named read-outs stand apart in the source and are kept apart here. One block for each molecule: values may come before it.

Tests used:
[1] = Solubility in water and in water-ethanol mixtures; type: physicochemical; details: water; read-out: Solubility in water
[2] = Excitation and emission spectra of substrates and hydrolysis products (Table 1); type: physicochemical
[3] = Ratio of fluorescence intensities of hydrolysis product and substrate; type: physicochemical; details: equimolar concentration, at the measurement wavelength
[4] = tested on: Leucine aminopeptidase; test: Enzymatic hydrolysis of substrate by leucine aminopeptidase, Michaelis kinetics; type: biochemical
Description: As a result of the possible presence in the substrate Leu ATC (compound 13) of a trace of ATC, i.e. 7-amino-4-(2',5',8'-trioxanonyl)-coumarin, which is the hydrolysis product, use was made of a kinetic method for determining the enzymatic activity of leucine aminopeptidase, i.e. the signal is constituted by the fluorescence intensity difference at 2 minutes and 12 minutes. In this way it is possible to eliminate the interference of the ATC present prior to hydrolysis.
The initial speed of the reaction was studied for a concentration of the substrate constituted by compound 13 (Leu-ATC) between 2×10^-5 mole/l and […] using the following reagents:
Crystalline Leu-ATC hydrochloride of example 13: aqueous solutions 4×10^-5 to 4×10^-3 mole/l,
Leucine aminopeptidase (Sigma, ref N5006): aqueous solution at 7.53 μg/ml in 0.2M Tris buffer, pH7.8,
Tris buffer: solution A: 0.2M Tris, i.e. 24.23 g/l, solution B: 0.1M HCl.
This buffer is prepared by mixing 25 ml of solution A and 33.7 ml of solution B and by topping up to 100 ml with water. The pH must be 7.8.
1.17N perchloric acid solution (1/10 dilution of the pure acid).
For this determination, preparation firstly takes place in tubes of the following range of substrate concentrations (compound 13, Leu-ATC): 0-2-4-10-20-50-100-200×10^-5 M (final concentration).
To each tube is added a concentration of 1.51 μg/ml of Leucine aminopeptidase, everything being dissolved in the Tris buffer at pH 7.8, preheated to 37° C., whilst the tubes are in a water bath thermostatically controlled to 37° C. After 2 min, 250 μl are removed from each tube and poured into tubes containing 250 μl of perchloric solution and 750 μl of water. The same operation is repeated after 6 min. All the tubes are diluted to 1/1000. The intensity of the fluorescence IF is measured at 370/480 nm. The difference of the intensities at 6 and 2 min: […] constitutes the signal.
The corresponding ATC concentration is calculated relative to a calibration range between 10^-9 and 10^-8 M. The results are given in the following table 2:
The speed constant kcat is calculated by the ratio Vm/Ez, in which Vm is the maximum speed in μmole/s/mg/Ez and Ez is the enzyme quantity in 1 mg, expressed in μmole. The molar mass of Leucine aminopeptidase is 300000.
This curve has a hyperbolic behaviour characteristic of a Michaelis kinetics. The experimental points were adjusted to the corresponding equation by non-linear regression (Graphpad software) and made it possible to determine the affinity constant Km, the maximum speed Vm and the speed constant kcat (ratio of the maximum speed to the enzyme concentration).

[5] = tested on: Leucine aminopeptidase; test: Determination of leucine aminopeptidase, analytical characteristics of the reaction; type: biochemical
Description: The reaction conditions were determined following the preceding stage. The Leu-ATC substrate concentration was chosen to give a maximum speed (1 mM). The reaction time was made 12 minutes by measuring the difference of the fluorescence intensities at 12 and 2 minutes. In order to evaluate the quantification limit, measure the repeatability and test the linearity, […] were prepared containing concentrations of 0-0.05-0.10-0.25-0.50-1 μg/ml using the same reagents as previously and giving the following range:
In order to carry out the evaluation, a series of tubes was prepared containing 750 μl of water+250 μl of 1.17N perchloric solution and at time 2 min, transfer thereto took place of 250 μl of each sample of the enzyme range. The same took place at time 12 min. This was followed by the dilution of all the tubes to 1/200 in water and the reading of the fluorescence (370/480 nm) with a gain of 2 on the Perkin Elmer LS3B fluorimeter.
The results obtained are given in FIG. 25, with which is the mean calibration curve illustrating the variation of the fluorescence intensity as a function of the enzyme concentration (μg/ml). This calibration curve was determined by linear regression. The mean standard deviation is 153±7.36 for the gradient and -3.10±1.16 for the intercept.
The quantification limit, calculated by the ratio […], is 0.02 μg/ml.
The repeatability, evaluated by the variation coefficient, is 17% at 0.05 μg/ml, 8% at 0.25 μg/ml and 4% at 1 μg/ml.

[6] = Excitation and emission spectra of ATC derivatives (Table 4); type: physicochemical; details: 10^-7 M; Z-Arg-ATC in 50 mM Tris pH 8, 10 mM CaCl2
Description: The excitation and emission spectra of ATC and Z-Arg-ATC were plotted on the basis of 10^-7 M solutions in the 50 mM Tris buffer at pH 8 containing 10 mM of CaCl2. The maxima obtained are indicated in table 4 with the corresponding maxima of Leu-ATC.

[7] = tested on: Leucine aminopeptidase; details: known substrates, for comparison; medium with organic solvent; cited from earlier work
[8] = tested on: Leucine aminopeptidase; details: comparison substrate Leu-AMC; cited from earlier work
[9] = substrate: COCCOCCOCc1cc(=O)oc2cc(NC(=O)[C@H](CCCNC(=N)N)NC(=O)OCc3ccccc3)ccc12; test: Hydrolysis of substrate by trypsin, Michaelis kinetics; type: biochemical, pig; details: other: Tris buffer pH 8.0 + CaCl2 10 mM, ambient temperature
Description: Crystalline Z-Arg-ATC hydrochloride (Seratec): 10^-3 M solution in Tris buffer, pH 8.0+CACl2, 10 mM.
Pig pancreas trypsin (SIGMA T0134): 10^-3 M solution in Tris buffer, pH 8.0+CACl2, 10 mM.
Tris buffer: solution A: 0.2M Tris, i.e. 24.23 g/l+CaCl2, 40 mM, i.e. 5.88 g/l; solution B: 0.1M HCl.
This buffer is prepared by mixing 250 ml of solution A with 268 ml of solution B and by topping up to 1 liter with water.
Acetate buffer: solution A: 0.02M acetic acid; solution B: 0.02M sodium acetate.
This buffer is prepared by mixing volume by volume solutions A and B to obtain a buffer at pH 4.75.
Aqueous 1.17N perchloric acid solution (1/10 dilution of pure acid).
The following substrate concentration range was prepared in tubes: 0-0.2-0.5-1-2-5-10×10^-4 M (final concentration).
To each tube was added a concentration of 6.67 μg/ml of trypsin, everything being dissolved in the Tris buffer pH 8.0+CaCl2, 10 mM and at ambient temperature. The enzyme is added at time 0. After 2 minutes, 250 μl are removed from each tube and poured into tubes containing 250 μl of 1.17N perchloric acid and 500 μl of water. The tubes are centrifuged and then the solution is diluted to 1/250 in the acetate buffer. The same operation is repeated at 17 min. The fluorescence intensity is measured at 380/490nm. The difference of the intensities at 17 and 2 min constitutes the signal.
The corresponding ATC concentration is calculated compared with a calibration range from 5×10^-9 to 2×10^-7 M.
This was followed by the determination of Km, Vm, kcat and the ratio kcat/Km. The results obtained are given in table 6, which also gives for comparison purposes the values obtained with Z-L-Arg-AMC and Bz DL Arg-AMC and Bz -L-Arg-AMC.

[10] = Tris buffer pH 7.8, 37° C., no organic solvent
[11] = words, vs Leu AMC and Leu-βnaphthylamide
[12] = fluorescence intensity vs enzyme concentration (μg/ml), linear regression

solubility [1]: 400 µg/mL and 1330 µM
Maximum excitation wavelength, hydrolysis product ([2]; 10^-7 M in Tris buffer, pH 7.8): 350 nm
Maximum fluorescence wavelength, hydrolysis product ([2]; 10^-7 M in Tris buffer, pH 7.8): 465 nm
ratio of the fluorescence intensities of the hydrolysis product and the substrate [3]: approximately 400
Molecule: COCCOCCOCc1cc(=O)oc2cc(N)ccc12 [Compound 4, 7-amino-4-(2',5',8'-trioxanonyl)coumarin]

Maximum excitation wavelength, substrate ([2]; 10^-7 M in Tris buffer, pH 7.8): 330 nm
Maximum fluorescence wavelength, substrate ([2]; 10^-7 M in Tris buffer, pH 7.8): 405 nm
Stokes displacement compared with AMC and AMCS derivatives ([2]; words): greater
ATC concentration in hydrolysis solution ([4]; Leu-ATC 2×10^-5 M): 1.7 µM/min
ATC concentration in working solution ([4]; Leu-ATC 2×10^-5 M): 1.38 nM
IF(6)-IF(2) ([4]; Leu-ATC 2×10^-5 M): 5.5
ATC concentration in hydrolysis solution ([4]; Leu-ATC 4×10^-5 M): 3.6 µM/min
ATC concentration in working solution ([4]; Leu-ATC 4×10^-5 M): 2.88 nM
IF(6)-IF(2) ([4]; Leu-ATC 4×10^-5 M): 11.5
ATC concentration in hydrolysis solution ([4]; Leu-ATC 10×10^-5 M): 6.6 µM/min
ATC concentration in working solution ([4]; Leu-ATC 10×10^-5 M): 5.25 nM
IF(6)-IF(2) ([4]; Leu-ATC 10×10^-5 M): 21
ATC concentration in hydrolysis solution ([4]; Leu-ATC 20×10^-5 M): 12.0 µM/min
ATC concentration in working solution ([4]; Leu-ATC 20×10^-5 M): 9.63 nM
IF(6)-IF(2) ([4]; Leu-ATC 20×10^-5 M): 38.5
ATC concentration in hydrolysis solution ([4]; Leu-ATC 50×10^-5 M): 14.1 µM/min
ATC concentration in working solution ([4]; Leu-ATC 50×10^-5 M): 11.25 nM
IF(6)-IF(2) ([4]; Leu-ATC 50×10^-5 M): 45
ATC concentration in hydrolysis solution ([4]; Leu-ATC 100×10^-5 M): 14.7 µM/min
ATC concentration in working solution ([4]; Leu-ATC 100×10^-5 M): 11.75 nM
IF(6)-IF(2) ([4]; Leu-ATC 100×10^-5 M): 47
ATC concentration in hydrolysis solution ([4]; Leu-ATC 200×10^-5 M): 15.0 µM/min
ATC concentration in working solution ([4]; Leu-ATC 200×10^-5 M): 12.0 nM
IF(6)-IF(2) ([4]; Leu-ATC 200×10^-5 M): 48
Km [4, 10]: 110 µM
Vm [4, 10]: 10.3 μmole/mg Ez/min
kcat ([4]; ratio Vm/Ez, pH 7.8, 37° C.): 51.5 s⁻¹
maximum speed compared with the other substrates [4, 11]: higher
repeatability (variation coefficient) ([5]; at 0.05 μg/ml enzyme): 17%
repeatability (variation coefficient) ([5]; at 0.25 μg/ml enzyme): 8%
repeatability (variation coefficient) ([5]; at 1 μg/ml enzyme): 4%
gradient of calibration curve [5, 12]: 153±7.36
intercept of calibration curve [5, 12]: -3.10±1.16
quantification limit ([5]; leucine aminopeptidase, ratio 3 b/a, substrate 1 mM, 12 min): 0.02 µg/mL
excitation maximum, substrate [6]: 330 nm
fluorescence maximum, substrate [6]: 405 nm
Molecule: COCCOCCOCc1cc(=O)oc2cc(NC(=O)[C@@H](N)CC(C)C)ccc12 [Compound 13, L-leucine-4-(2',5',8'-trioxanonyl)-7-coumarinylamide hydrochloride]
affinity for Leucine aminopeptidase compared with the other substrates [4, 11]: better than that of the two other substrates

ratio of the fluorescence intensities of the hydrolysis product and the substrate [3]: ~250
Molecule: Nc1ccc2c(CS(=O)(=O)O)cc(=O)oc2c1 [AMCS, 7-amino-4-coumarinyl-methane sulphonic acid, reference compound]

Maximum excitation wavelength, substrate ([2]; 10^-7 M in Tris buffer, pH 7.8): 327 nm
Maximum fluorescence wavelength, substrate ([2]; 10^-7 M in Tris buffer, pH 7.8): 390 nm
Molecule: Cc1cc(=O)oc2cc(NC(=O)[C@@H](N)CC(C)C)ccc12 [Leu AMC]
Km [7]: 160 µM
Vm [7]: 4.0 μmole/mg Ez/min
detection limit [8]: 0.03 µg/mL

B1: Pig pancreas trypsin (Sus scrofa) (protein)
chain: IVGGYTCAANSIPYQVSLNSGSHFCGGSLINSQWVVSAAHCYKSRIQVRLGEHNIDVLEGNEQFINAAKIITHPNFNGNTLDNDIMLIKLSSPATLNSRVATVSLPRSCAAAGTECLISGWGNTKSSGSSYPSLLQCLKAPVLSDSSCKSSYPGQITGNMICVGFLEGGKDSCQGDSGGPVVCNGQLQGIVSWGYGCAQKNKPGVYTKVCNYVNWIQQTIAAN
Km [9]: 195 µM
Vmax [9]: 3.16 µM/min
kcat/Km [9]: 975 M⁻¹ s⁻¹
